Assay results published in the supplement of paper PMC13380429.

Legend:
Conditions in all cases: 72 h
[1] = tested on: Vero E6; test: cell viability relative to DMSO; higher = less toxic
[2] = tested on: U2OS; test: as above
[3] = tested on: Calu-3; test: as above
[4] = tested on: HepG2; test: as above
[5] = tested on: Caco-2; test: as above
[6] = tested on: Vero E6; test: relative viability EC50 (midpoint between 100% and the lowest measured viability); higher = less toxic
[7] = tested on: U2OS; test: as above
[8] = tested on: Calu-3; test: as above
[9] = tested on: HepG2; test: as above
[10] = tested on: Caco-2; test: as above
[11] = tested on: Vero E6; test: drug sensitivity score (DSS) for viability; higher = more toxic; extreme values may be limits of the assay
[12] = tested on: U2OS; test: as above
[13] = tested on: Calu-3; test: as above
[14] = tested on: HepG2; test: as above
[15] = tested on: Caco-2; test: as above

Structure (SMILES) | cell viability ([1]; 1 nM) [%] | cell viability ([1]; 10 nM) [%] | cell viability ([1]; 100 nM) [%] | cell viability ([1]; 1000 nM) [%] | cell viability ([1]; 10000 nM) [%] | cell viability ([2]; 1 nM) [%] | cell viability ([2]; 10 nM) [%] | cell viability ([2]; 100 nM) [%] | cell viability ([2]; 1000 nM) [%] | cell viability ([2]; 10000 nM) [%] | cell viability ([3]; 1 nM) [%] | cell viability ([3]; 10 nM) [%] | cell viability ([3]; 100 nM) [%] | cell viability ([3]; 1000 nM) [%] | cell viability ([3]; 10000 nM) [%] | cell viability ([4]; 1 nM) [%] | cell viability ([4]; 10 nM) [%] | cell viability ([4]; 100 nM) [%] | cell viability ([4]; 1000 nM) [%] | cell viability ([4]; 10000 nM) [%] | cell viability ([5]; 1 nM) [%] | cell viability ([5]; 10 nM) [%] | cell viability ([5]; 100 nM) [%] | cell viability ([5]; 1000 nM) [%] | cell viability ([5]; 10000 nM) [%] | relative viability EC50 [6] [µM] | relative viability EC50 [7] [µM] | relative viability EC50 [8] [µM] | relative viability EC50 [9] [µM] | relative viability EC50 [10] [µM] | drug sensitivity score [11] | drug sensitivity score [12] | drug sensitivity score [13] | drug sensitivity score [14] | drug sensitivity score [15]
Cn1cc(C2=C(c3cn(C4CCN(Cc5ccccn5)CC4)c4ccccc34)C(=O)NC2=O)c2ccccc21 [enzastaurin] | 101 | 107 | 103 | 105 | 98.9 | 102 | 101 | 102 | 97.4 | 101 | 109 | 97.3 | 118 | 108 | 109 | 105 | 113 | 94 | 98 | 106 | 98.6 | 104 | 93.2 | 98.4 | 100 | > 10 | > 10 | > 10 | > 10 | > 10 | 0 | 0 | 0 | 0 | 0
CC1(C)OC2(C)C(O)CC1CC2O (stereo not given) [epomediol] | 98.7 | 97 | 98 | 98.7 | 94 | 108 | 97.3 | 98.1 | 97.7 | 102 | 97.1 | 82.6 | 97.5 | 90.9 | 105 | 99.9 | 98.1 | 96.2 | 112 | 101 | 98.7 | 92.1 | 98.2 | 95 | 101 | > 10 | > 10 | > 10 | > 10 | > 10 | 0 | 0 | 0 | 0 | 0
CC[C@H]1OC(=O)[C@H](C)[C@@H](O[C@H]2C[C@@](C)(OC)[C@@H](O)[C@H](C)O2)[C@H](C)[C@@H](O[C@@H]2O[C@H](C)C[C@H](N(C)C)[C@H]2O)[C@](C)(O)C[C@@H](C)C(=O)[C@H](C)[C@@H](O)[C@]1(C)O [erythromycin] | 101 | 97.9 | 101 | 97.4 | 99.5 | 104 | 102 | 102 | 98 | 101 | 94.2 | 102 | 97.5 | 90 | 86.9 | 100 | 83.5 | 98.1 | 91.4 | 90.4 | 97.9 | 100 | 97.2 | 94.4 | 96.4 | > 10 | > 10 | > 10 | > 10 | > 10 | 0 | 0 | 0.5 | 0 | 0
CCOC(=O)[C@@H](N)Cc1ccc(O)c(O)c1 [etilevodopa] | 101 | 89.7 | 89.7 | 98.9 | 111 | 92.6 | 95.7 | 98.3 | 96.3 | 99.3 | 103 | 95.6 | 92.2 | 88.8 | 94 | 86.2 | 96 | 88.1 | 99.1 | 92.5 | 94 | 107 | 84.2 | 85.8 | 92.8 | > 10 | > 10 | > 10 | > 10 | > 10 | 0 | 0 | 0.3 | 0 | 2.8
CC1CC(OC(=O)C(O)c2ccccc2)CC(C)(C)N1C (stereo not given) [eucatropine] | 97.8 | 102 | 98.2 | 102 | 98.8 | 104 | 104 | 97.8 | 100 | 100 | 101 | 100 | 92.5 | 95 | 107 | 93.5 | 88.3 | 95.3 | 90 | 93.3 | 99.3 | 103 | 97 | 99.2 | 92.6 | > 10 | > 10 | > 10 | > 10 | > 10 | 0 | 0 | 0 | 0 | 0
CC(=O)OCC(CCn1cnc2cnc(N)nc21)COC(C)=O [famciclovir] | 99.7 | 102 | 98.7 | 96.9 | 100 | 100 | 104 | 95 | 102 | 95.5 | 104 | 99.4 | 91.1 | 106 | 93.9 | 103 | 98.4 | 103 | 96.8 | 100 | 91.3 | 101 | 105 | 87.4 | 82.8 | > 10 | > 10 | > 10 | > 10 | > 10 | 0 | 0 | 0 | 0 | 1.4
O=c1[nH]c(=O)n([C@H]2C[C@H](O)[C@@H](CO)O2)cc1F [floxuridine] | 97.2 | 91.8 | 74.6 | 53.6 | 42.2 | 95.3 | 99.9 | 101 | 105 | 82.6 | 101 | 85.1 | 93.6 | 88.9 | 89 | 109 | 66.2 | 59.4 | 50 | 43.1 | 88.4 | 62 | 42 | 29.9 | 44.6 | 0.134 | > 10 | > 10 | 0.0144 | 0.0088 | 11.8 | 0.3 | 0.5 | 19 | 24.9
